Source: ChEMBL document CHEMBL1137686, “Synthesis and anticonvulsant activity of new N-[(4-arylpiperazin-1-yl)-alkyl] derivatives of 3-phenyl-pyrrolidine-2,5-dione” (Eur J Med Chem, 2009)
The source made the active and inactive calls. The calls are words filed in the database; no cut-off is given here.

Tests used:
[1] = system: Mus musculus; experiment: Neurotoxicity in ip dosed CF1 albino mouse assessed as ability to maintain equilibrium for 1 min on […] after 0.5 hrs by rotarod test; format: toxicity, organism-based; details: in vivo
[2] = system: Mus musculus; experiment: Anticonvulsant activity in CF1 albino mouse assessed as inhibition of maximal electroshock-induced seizures at 300 mg/kg, ip after 4 hrs; format: functional, organism-based; set-up: dose 300 mg/kg
[3] = system: Mus musculus; experiment: Neurotoxicity in CF1 albino mouse assessed as ability to maintain equilibrium for 1 min on […] at 300 mg/kg, ip after 4 hrs by rotarod test; format: toxicity, organism-based; set-up: dose 300 mg/kg, route intraperitoneal; details: in vivo
[4] = system: Mus musculus; experiment: Anticonvulsant activity in CF1 albino mouse assessed as inhibition of maximal electroshock-induced seizures at 300 mg/kg, ip after 0.5 hrs; format: functional, organism-based; set-up: dose 300 mg/kg
[5] = system: Mus musculus; experiment: Neurotoxicity in CF1 albino mouse assessed as ability to maintain equilibrium for 1 min on […] at 300 mg/kg, ip after 0.5 hrs by rotarod test; format: toxicity, organism-based; set-up: dose 300 mg/kg, route intraperitoneal; details: in vivo
[6] = system: Mus musculus; experiment: Neurotoxicity in ip dosed CF1 albino mouse assessed as ability to maintain equilibrium for 1 min on […] after 4 hrs by rotarod test; format: toxicity, organism-based; details: in vivo
[7] = system: Mus musculus; experiment: Anticonvulsant activity in ip dosed CF1 albino mouse assessed as inhibition of maximal electroshock-induced seizures after 0.5 hrs; format: functional
[8] = system: Mus musculus; experiment: Toxicity in CF1 albino mouse assessed as myoclonic jerks at 100 mg/kg, ip after 4 hrs; format: organism-based; set-up: dose 100 mg/kg, route intraperitoneal; details: in vivo
[9] = system: Mus musculus; experiment: Anticonvulsant activity in CF1 albino mouse assessed as protection against maximal electroshock-induced seizures at 30 mg/kg, po after 0.5 hrs; format: functional
[10] = system: Mus musculus; experiment: Neurotoxicity in CF1 albino mouse assessed as motor impairment at 30 mg/kg, po after 0.5 hrs by rotarod test; format: toxicity, organism-based; set-up: dose 30 mg/kg, route oral; details: in vivo
[11] = system: Mus musculus; experiment: Neurotoxicity in CF1 albino mouse assessed as motor impairment at 30 mg/kg, po after 1 hr by rotarod test; format: toxicity, organism-based; set-up: dose 30 mg/kg, route oral; details: in vivo
[12] = system: Mus musculus; experiment: Neurotoxicity in CF1 albino mouse assessed as motor impairment at 30 mg/kg, po after 4 hrs by rotarod test; format: toxicity, organism-based; set-up: dose 30 mg/kg, route oral; details: in vivo
[13] = system: Mus musculus; experiment: Neurotoxicity in CF1 albino mouse assessed as motor impairment at 30 mg/kg, po after 2 hrs by rotarod test; format: toxicity, organism-based; set-up: dose 30 mg/kg, route oral; details: in vivo
[14] = system: Mus musculus; experiment: Anticonvulsant activity in CF1 albino mouse assessed as protection against maximal electroshock-induced seizures at 30 mg/kg, po after 1 hr; format: functional
[15] = system: Mus musculus; experiment: Neurotoxicity in CF1 albino mouse assessed as motor impairment at 30 mg/kg, po after 0.25 hrs by rotarod test; format: toxicity, organism-based; set-up: dose 30 mg/kg, route oral; details: in vivo
[16] = system: Mus musculus; experiment: Anticonvulsant activity in CF1 albino mouse assessed as protection against maximal electroshock-induced seizures at 30 mg/kg, po after 4 hrs; format: functional
[17] = system: Mus musculus; experiment: Anticonvulsant activity in CF1 albino mouse assessed as protection against maximal electroshock-induced seizures at 30 mg/kg, po after 2 hrs; format: functional
[18] = system: Mus musculus; experiment: Anticonvulsant activity in CF1 albino mouse assessed as protection against maximal electroshock-induced seizures at 30 mg/kg, po after 0.25 hrs; format: functional
[19] = system: Mus musculus; experiment: Anticonvulsant activity in ip dosed CF1 albino mouse assessed as inhibition of maximal electroshock-induced seizures after 4 hrs; format: functional
[20] = system: Mus musculus; experiment: Neurotoxicity in CF1 albino mouse assessed as death at 300 mg/kg, ip after 0.5 hrs by rotarod test; format: toxicity, organism-based; set-up: dose 300 mg/kg, route intraperitoneal; details: in vivo
[21] = system: Mus musculus; experiment: Neurotoxicity in CF1 albino mouse assessed as ability to grasp rotarod at 300 mg/kg, ip after 0.5 hrs by rotarod test; format: toxicity, organism-based; set-up: dose 300 mg/kg, route intraperitoneal; details: in vivo
[22] = system: Rattus norvegicus; experiment: Anticonvulsant activity in po dosed rat assessed as inhibition of maximal electroshock-induced seizures; format: functional
[23] = Neurotoxicity in ip dosed CF1 albino mouse assessed as ability to maintain equilibrium for 1 min on […] by rotarod test; format: toxicity, organism-based; details: in vivo
[24] = organism: Mus musculus; experiment: Protective index, ratio of TD50 for neurotoxicity in CF1 albino mouse to ED50 for inhibition of maximal electroshock-induced seizures in CF1 albino mouse; format: functional
[25] = system: Mus musculus; experiment: Anticonvulsant activity in ip dosed CF1 albino mouse assessed as inhibition of subcutaneous pentylenetetrazole-induced seizures; format: functional
[26] = system: Mus musculus; experiment: Anticonvulsant activity in ip dosed CF1 albino mouse assessed as inhibition of maximal electroshock-induced seizures; format: functional
[27] = system: Mus musculus; experiment: Anticonvulsant activity against maximal electroshock-induced seizures in ip dosed CF1 albino mouse assessed as time to peak effect; format: functional

## Cc1ccccc1C1CC(=O)N(CN2CCN(c3ccccc3F)CC2)C1=O (stereo unspecified)
[1]
  Activity: 300 mg/kg
[2]
  Activity: inactive
[3]
  Activity: Non-toxic
[4]
  Activity: inactive

## Cc1ccccc1C1CC(=O)N(CCN2CCN(c3ccccc3)CC2)C1=O (stereo unspecified)
[1]
  Activity: 300 mg/kg
[2]
  Activity: inactive
[3]
  Activity: Non-toxic
[4]
  Activity: inactive

## O=C1CC(c2ccccc2C(F)(F)F)C(=O)N1CCN1CCN(c2cccc(C(F)(F)F)c2)CC1 (stereo unspecified)
[5]
  Activity: Non-toxic
[2]
  Activity: inactive
[3]
  Activity: Non-toxic
[4]
  Activity: inactive

## COc1ccccc1N1CCN(CCCN2C(=O)CC(c3ccccc3C(F)(F)F)C2=O)CC1 (stereo unspecified)
[1]
  Activity: 100 mg/kg
[2]
  Activity: inactive
[6]
  Activity: 300 mg/kg
[4]
  Activity: inactive

## COc1ccccc1N1CCN(CN2C(=O)CC(c3ccccc3C)C2=O)CC1.Cl (stereo unspecified)
[1]
  Activity: 100 mg/kg
[7]
  Activity: 300 mg/kg
[2]
  Activity: inactive
[8]
  Activity: Toxic
[6]
  Activity: 300 mg/kg

## Cc1ccccc1C1CC(=O)N(CN2CCN(c3cccc(Cl)c3)CC2)C1=O (stereo unspecified)
[5]
  Activity: Non-toxic
[2]
  Activity: inactive
[3]
  Activity: Non-toxic
[4]
  Activity: inactive

## O=C1CC(c2ccccc2C(F)(F)F)C(=O)N1CCN1CCN(c2cccc(Cl)c2)CC1 (stereo unspecified)
[5]
  Activity: Non-toxic
[9]
  Activity: inactive
[10]
  Activity: Non-toxic
[11]
  Activity: Non-toxic
[12]
  Activity: Non-toxic
[13]
  Activity: Non-toxic
[3]
  Activity: Non-toxic
[14]
  Activity: inactive
[4]
  Activity: inactive
[15]
  Activity: Non-toxic
[16]
  Activity: inactive
[17]
  Activity: inactive
[18]
  Activity: inactive
[19]
  Activity: 100 mg/kg

## O=C1CC(c2ccccc2C(F)(F)F)C(=O)N1CCN1CCN(c2ccccc2F)CC1 (stereo unspecified)
[5]
  Activity: Non-toxic
[2]
  Activity: inactive
[3]
  Activity: Non-toxic
[4]
  Activity: inactive

## COc1ccccc1N1CCN(CCN2C(=O)CC(c3ccccc3C)C2=O)CC1 (stereo unspecified)
[1]
  Activity: 300 mg/kg
[2]
  Activity: inactive
[3]
  Activity: Non-toxic
[4]
  Activity: inactive
[20]
  Activity: Toxic

## Cc1ccccc1C1CC(=O)N(CCN2CCN(c3ccccc3F)CC2)C1=O (stereo unspecified)
[1]
  Activity: 300 mg/kg
[3]
  Activity: Non-toxic
[4]
  Activity: inactive
[19]
  Activity: 300 mg/kg

## Cc1ccccc1C1CC(=O)N(CCCN2CCN(c3cccc(Cl)c3)CC2)C1=O (stereo unspecified)
[1]
  Activity: 300 mg/kg
[9]
  Activity: inactive
[10]
  Activity: Non-toxic
[7]
  Activity: 300 mg/kg
[11]
  Activity: Non-toxic
[12]
  Activity: Non-toxic
[13]
  Activity: Non-toxic
[3]
  Activity: Non-toxic
[14]
  Activity: inactive
[15]
  Activity: Non-toxic
[16]
  Activity: inactive
[17]
  Activity: 25%
[18]
  Activity: inactive
[19]
  Activity: 100 mg/kg

## O=C1CC(c2ccccc2C(F)(F)F)C(=O)N1CN1CCN(c2ccccc2F)CC1 (stereo unspecified)
[1]
  Activity: 100 mg/kg
[9]
  Activity: 25%
[10]
  Activity: Non-toxic
[11]
  Activity: Non-toxic
[12]
  Activity: Non-toxic
[13]
  Activity: Non-toxic
[6]
  Activity: 300 mg/kg
[14]
  Activity: 25%
[4]
  Activity: inactive
[15]
  Activity: Non-toxic
[16]
  Activity: 25%
[17]
  Activity: inactive
[19]
  Activity: 30 mg/kg

## COc1ccccc1N1CCN(CCCN2C(=O)CC(c3ccccc3C)C2=O)CC1 (stereo unspecified)
[1]
  Activity: 100 mg/kg
[2]
  Activity: inactive
[3]
  Activity: Non-toxic
[4]
  Activity: inactive

## O=C1CC(c2ccccc2C(F)(F)F)C(=O)N1CCCN1CCN(c2ccccc2)CC1 (stereo unspecified)
[1]
  Activity: 300 mg/kg
[7]
  Activity: 300 mg/kg
[2]
  Activity: inactive
[21]
  Activity: Toxic
[3]
  Activity: Non-toxic

## O=C1CC(c2ccccc2C(F)(F)F)C(=O)N1CN1CCN(c2cccc(C(F)(F)F)c2)CC1 (stereo unspecified)
[1]
  Activity: 300 mg/kg
[7]
  Activity: 100 mg/kg
[3]
  Activity: Non-toxic
[19]
  Activity: 100 mg/kg

## O=C1CC(c2ccccc2C(F)(F)F)C(=O)N1CCCN1CCN(c2cccc(Cl)c2)CC1 (stereo unspecified)
[1]
  Activity: 100 mg/kg
[7]
  Activity: 100 mg/kg
[6]
  Activity: 300 mg/kg
[19]
  Activity: 100 mg/kg

## O=C1CC(c2ccccc2C(F)(F)F)C(=O)N1CN1CCN(c2cccc(Cl)c2)CC1 (stereo unspecified)
[1]
  Activity: 100 mg/kg
[9]
  Activity: 25%
[10]
  Activity: Non-toxic
[11]
  Activity: Non-toxic
[12]
  Activity: Non-toxic
[13]
  Activity: Non-toxic
[6]
  Activity: 100 mg/kg
[14]
  Activity: 50%
[4]
  Activity: inactive
[15]
  Activity: Non-toxic
[16]
  Activity: 100%
[17]
  Activity: 100%
[18]
  Activity: inactive
[19]
  Activity: 100 mg/kg

## Cc1ccccc1C1CC(=O)N(CN2CCN(c3ccccc3)CC2)C1=O (stereo unspecified)
[1]
  Activity: 100 mg/kg
[6]
  Activity: 300 mg/kg
[4]
  Activity: inactive
[19]
  Activity: 300 mg/kg

## O=C1CC(c2ccccc2Cl)C(=O)N1CN1CCN(c2cccc(Cl)c2)CC1 (stereo unspecified)
[22]
  ED50: 14.2 mg/kg

## O=C1CC(c2ccccc2C(F)(F)F)C(=O)N1CCN1CCN(c2ccccc2)CC1 (stereo unspecified)
[5]
  Activity: Non-toxic
[2]
  Activity: inactive
[3]
  Activity: Non-toxic
[4]
  Activity: inactive

## Cc1ccccc1C1CC(=O)N(CCN2CCN(c3cccc(C(F)(F)F)c3)CC2)C1=O (stereo unspecified)
[5]
  Activity: Non-toxic
[7]
  Activity: 300 mg/kg
[3]
  Activity: Non-toxic
[19]
  Activity: 300 mg/kg

## Cc1ccccc1C1CC(=O)N(CCCN2CCN(c3cccc(C(F)(F)F)c3)CC2)C1=O (stereo unspecified)
[5]
  Activity: Non-toxic
[9]
  Activity: inactive
[10]
  Activity: Non-toxic
[7]
  Activity: 100 mg/kg
[11]
  Activity: Non-toxic
[12]
  Activity: Non-toxic
[13]
  Activity: 25%
[3]
  Activity: Non-toxic
[14]
  Activity: inactive
[15]
  Activity: Non-toxic
[16]
  Activity: inactive
[17]
  Activity: inactive
[18]
  Activity: inactive
[19]
  Activity: 100 mg/kg

## O=C1CC(c2ccccc2C(F)(F)F)C(=O)N1CCCN1CCN(c2cccc(C(F)(F)F)c2)CC1 (stereo unspecified)
[1]
  Activity: 300 mg/kg
[23]
  TD50 at 1 min: 360 mg/kg
[9]
  Activity: 25%
[10]
  Activity: Non-toxic
[7]
  Activity: 30 mg/kg
[24]
  Ratio TD50/ED50: 2.72
[11]
  Activity: Non-toxic
[12]
  Activity: Non-toxic
[13]
  Activity: Non-toxic
[25]
  ED50: > 350 mg/kg
[6]
  Activity: 300 mg/kg
[14]
  Activity: 25%
[26]
  ED50: 132 mg/kg
[27]
  Time: 2 h
[15]
  Activity: Non-toxic
[16]
  Activity: inactive
[17]
  Activity: inactive
[18]
  Activity: inactive
[19]
  Activity: 100 mg/kg
